Assay results as given in patent US20240139167A1, “LYSOSOME-ASSOCIATED MEMBRANE PROTEIN TARGETING COMPOUNDS AND USES THEREOF” (HADASIT MEDICAL RESEARCH SERVICES AND DEVELOPMENT LTD., priority 2021, published 2024).

Tested on: PD patient-derived skin fibroblasts
Assay: Autophagic flux in Pompe disease fibroblasts
Format: cell-based, human
Procedure: FIG. 15 includes a micrograph and a vertical bar graph showing autophagic flux in PD patient-derived skin fibroblasts, serum starved and treated (or not) with 50 μM 144DG11 (indicated as comp. A).
144DG11 can activate autophagy in the lysosomal storage disease (LSD) Pompe disease (PD) in which autophagy is perturbed (FIG. 15). […] This ratio serves as the most accepted marker for autophagy and autophagic flux. […] These observations indicate that, as in the GSD APBD, 144DG11 can activate autophagy also in the typical LSD PD in which autophagy is disturbed.

SMILES: CC[C@]1(O)C[C@@H]2CN(CCc3c([nH]c4ccccc34)[C@@](C(=O)OC)(c3cc4c(cc3OC)N(C)[C@H]3[C@@](O)(C(=O)OC)[C@H](OC(C)=O)[C@]5(CC)C=CCN6CC[C@]43[C@@H]65)C2)C1 [vinblastine, reference compound]
- ratio of LC3II to LC3I: increased
